Patent US8877748B2, “Heterocyclic fused anthraquinone derivatives, manufacturing method and pharmaceutical composition using thereof” (National Defense Medical Center, priority 2012, dated 2014)

Key:
[1] = test system: PC-3 prostate cancer cell line; assay: SRB assay cell viability, PC-3 prostate cancer cell line; assay type: cell-based, human; details: Homo sapiens, PC-3 prostate cancer cell line, Table II prints no unit, μM printed, read-out: SRB assay: 50% inhibition of cancer cell proliferation of sample concentration (IC50) of PC-3 prostate cancer cell line
[2] = test system: HL-60, TB; assay: NCI one-dose screening, leukemia HL-60, TB; assay type: cell-based, human; details: 10 μM
[3] = test system: MOLT-4; assay: NCI one-dose screening, leukemia MOLT-4; assay type: cell-based, human; details: 10 μM
[4] = test system: SR; assay: NCI one-dose screening, leukemia SR; assay type: cell-based, human; details: 10 μM
[5] = test system: PRMI-8226 cell line; assay: NCI one-dose screening, leukemia PRMI-8226; assay type: cell-based, human; details: 10 μM
[6] = test system: K562cell line; assay: NCI one-dose screening, leukemia K562; assay type: cell-based, human; details: 10 μM
[7] = test system: EKVX; assay: NCI one-dose screening, non-small cell lung cancer EKVX; assay type: cell-based, human; details: 10 μM
[8] = test system: HOP-62; assay: NCI one-dose screening, non-small cell lung cancer HOP-62; assay type: cell-based, human; details: 10 μM
[9] = test system: HOP-92; assay: NCI one-dose screening, non-small cell lung cancer HOP-92; assay type: cell-based, human; details: 10 μM
[10] = test system: NCI-H226; assay: NCI one-dose screening, non-small cell lung cancer NCI-H226; assay type: cell-based, human; details: 10 μM
[11] = test system: NCI-H23; assay: NCI one-dose screening, non-small cell lung cancer NCI-H23; assay type: cell-based, human; details: 10 μM
[12] = test system: NCI-H460; assay: NCI one-dose screening, non-small cell lung cancer NCI-H460; assay type: cell-based, human; details: 10 μM
[13] = test system: NCI-H522; assay: NCI one-dose screening, non-small cell lung cancer NCI-H522; assay type: cell-based, human; details: 10 μM
[14] = test system: A549/ATCC; assay: NCI one-dose screening, non-small cell lung cancer A549/ATCC; assay type: cell-based, human; details: 10 μM
[15] = test system: COLO 205; assay: NCI one-dose screening, colon cancer COLO 205; assay type: cell-based, human; details: 10 μM
[16] = test system: HCC-2998; assay: NCI one-dose screening, colon cancer HCC-2998; assay type: cell-based, human; details: 10 μM
[17] = test system: HCT-116; assay: NCI one-dose screening, colon cancer HCT-116; assay type: cell-based, human; details: 10 μM
[18] = test system: HCT-15; assay: NCI one-dose screening, colon cancer HCT-15; assay type: cell-based, human; details: 10 μM
[19] = test system: KM12; assay: NCI one-dose screening, colon cancer KM12; assay type: cell-based, human; details: 10 μM
[20] = test system: HT29; assay: NCI one-dose screening, colon cancer HT29; assay type: cell-based, human; details: 10 μM
[21] = test system: SF-268; assay: NCI one-dose screening, CNS cancer SF-268; assay type: cell-based, human; details: 10 μM
[22] = test system: SF-539; assay: NCI one-dose screening, CNS cancer SF-539; assay type: cell-based, human; details: 10 μM
[23] = test system: SNB-19; assay: NCI one-dose screening, CNS cancer SNB-19; assay type: cell-based, human; details: 10 μM
[24] = test system: SNB-75; assay: NCI one-dose screening, CNS cancer SNB-75; assay type: cell-based, human; details: 10 μM
[25] = test system: U251; assay: NCI one-dose screening, CNS cancer U251; assay type: cell-based, human; details: 10 μM
[26] = test system: LOX IMVI; assay: NCI one-dose screening, melanoma LOX IMVI; assay type: cell-based, human; details: 10 μM
[27] = test system: MALME-3M; assay: NCI one-dose screening, melanoma MALME-3M; assay type: cell-based, human; details: 10 μM
[28] = test system: M14; assay: NCI one-dose screening, melanoma M14; assay type: cell-based, human; details: 10 μM
[29] = test system: UACC-62; assay: NCI one-dose screening, melanoma UACC-62; assay type: cell-based, human; details: 10 μM
[30] = test system: UACC-257; assay: NCI one-dose screening, melanoma UACC-257; assay type: cell-based, human; details: 10 μM
[31] = test system: SK-MEL-2; assay: NCI one-dose screening, melanoma SK-MEL-2; assay type: cell-based, human; details: 10 μM
[32] = test system: SK-MEL-28; assay: NCI one-dose screening, melanoma SK-MEL-28; assay type: cell-based, human; details: 10 μM
[33] = test system: SK-MEL-5; assay: NCI one-dose screening, melanoma SK-MEL-5; assay type: cell-based, human; details: 10 μM
[34] = test system: IGROV1; assay: NCI one-dose screening, ovarian cancer IGROV1; assay type: cell-based, human; details: 10 μM
[35] = test system: OVCAR-3; assay: NCI one-dose screening, ovarian cancer OVCAR-3; assay type: cell-based, human; details: 10 μM
[36] = test system: OVCAR-5; assay: NCI one-dose screening, ovarian cancer OVCAR-5; assay type: cell-based, human; details: 10 μM
[37] = test system: OVCAR-8; assay: NCI one-dose screening, ovarian cancer OVCAR-8; assay type: cell-based, human; details: 10 μM
[38] = test system: SK-OV-3; assay: NCI one-dose screening, ovarian cancer SK-OV-3; assay type: cell-based, human; details: 10 μM
[39] = test system: 786-O; assay: NCI one-dose screening, renal cancer 786-O; assay type: cell-based, human; details: 10 μM
[40] = NCI one-dose screening, renal cancer A489; assay type: cell-based, human; details: 10 μM
[41] = test system: ACHN; assay: NCI one-dose screening, renal cancer ACHN; assay type: cell-based, human; details: 10 μM
[42] = test system: SN12C; assay: NCI one-dose screening, renal cancer SN12C; assay type: cell-based, human; details: 10 μM
[43] = test system: TK-10; assay: NCI one-dose screening, renal cancer TK-10; assay type: cell-based, human; details: 10 μM
[44] = test system: UO-31; assay: NCI one-dose screening, renal cancer UO-31; assay type: cell-based, human; details: 10 μM
[45] = test system: RXF, 393; assay: NCI one-dose screening, renal cancer RXF, 393; assay type: cell-based, human; details: 10 μM
[46] = test system: DU145; assay: NCI one-dose screening, prostate cancer DU145; assay type: cell-based, human; details: 10 μM
[47] = test system: PC-3; assay: NCI one-dose screening, prostate cancer PC-3; assay type: cell-based, human; details: 10 μM
[48] = test system: MCF7; assay: NCI one-dose screening, breast cancer MCF7; assay type: cell-based, human; details: 10 μM
[49] = test system: HS 578-T; assay: NCI one-dose screening, breast cancer HS 578-T; assay type: cell-based, human; details: 10 μM; Breast cancer
[50] = test system: MDA-MB-231/ATCC; assay: NCI one-dose screening, breast cancer MDA-MB-231/ATCC; assay type: cell-based, human; details: 10 μM
[51] = test system: MDA-MB-468; assay: NCI one-dose screening, breast cancer MDA-MB-468; assay type: cell-based, human; details: 10 μM
[52] = test system: NCl/ADR-RES; assay: NCI one-dose screening, breast cancer NCl/ADR-RES; assay type: cell-based, human; details: 10 μM; listed under Ovarian cancer
[53] = test system: BT-549; assay: NCI one-dose screening, breast cancer BT-549; assay type: cell-based, human; details: 10 μM
[54] = test system: T-47D; assay: NCI one-dose screening, breast cancer T-47D; assay type: cell-based, human; details: 10 μM
[55] = test system: MDA, -MB-435; assay: NCI one-dose screening, breast cancer MDA, -MB-435; assay type: cell-based, human; details: 10 μM; listed under Melanoma
[56] = test system: human tumor cell lines; assay: NCI one-dose screening, Mean / Delta / Range of growth percent over all tested cell lines; assay type: cell-based; details: 10 μM

With `Cc1ccc(Sc2cc3c(c4nsnc24)C(=O)c2ccccc2C3=O)c(C)c1` [C25, 4-(2,4-dimethylphenylthio)anthra[2,1-c] [1,2,5]thiadiazol-6,11-dione] the IC50 [1] was > 15 µM, the “Growth Percent HL-60(TB)” value [2] was 99.93% and the “Growth Percent MOLT-4” value [3] was 91.01%. For the same molecule, the “Growth Percent SR” value [4] was 70.26%, the “Growth Percent RPMI-8226” value [5] was 85.14% and the “Growth Percent K562” value [6] was 67.97%. For the same molecule, the “Growth Percent EKVX” value [7] was 108.79%, the “Growth Percent HOP-62” value [8] was 79.34% and the “Growth Percent HOP-92” value [9] was 97.83%. The “Growth Percent NCI-H226” value [10] was 01.50%, the “Growth Percent NCI-H23” value [11] was 89.40% and the “Growth Percent NCI-H460” value [12] was 102.01%. The “Growth Percent NCI-H522” value [13] was 96.81%, the “Growth Percent A549/ATCC” value [14] was 109.80% and the “Growth Percent COLO 205” value [15] was 106.63%. The “Growth Percent HCC-2998” value [16] was 121.23%, the “Growth Percent HCT-116” value [17] was 94.55% and the “Growth Percent HCT-15” value [18] was 83.04%. The “Growth Percent KM12” value [19] was 96.42%, the “Growth Percent HT29” value [20] was 101.47% and the “Growth Percent SF-268” value [21] was 90.61%. The “Growth Percent SF-539” value [22] was 100.22%, the “Growth Percent SNB-19” value [23] was 102.33% and the “Growth Percent SNB-75” value [24] was 76.05%. The “Growth Percent U251” value [25] was 104.99%, the “Growth Percent LOX IMVI” value [26] was 90.38% and the “Growth Percent MALME-3M” value [27] was 108.23%. For the same molecule, the “Growth Percent M14” value [28] was 100.77%, the “Growth Percent UACC-62” value [29] was 94.50% and the “Growth Percent UACC-257” value [30] was 121.93%. The “Growth Percent SK-MEL-2” value [31] was 98.52%, the “Growth Percent SK-MEL-28” value [32] was 118.64% and the “Growth Percent SK-MEL-5” value [33] was 109.99%. For the same molecule, the “Growth Percent IGROV1” value [34] was 95.00%, the “Growth Percent OVCAR-3” value [35] was 105.38% and the “Growth Percent OVCAR-5” value [36] was 106.46%. For the same molecule, the “Growth Percent OVCAR-8” value [37] was 104.59%, the “Growth Percent SK-OV-3” value [38] was 110.36% and the “Growth Percent 786-0” value [39] was 105.11%. The “Growth Percent A498” value [40] was 84.37%, the “Growth Percent ACHN” value [41] was 94.24% and the “Growth Percent SN12C” value [42] was 98.68%. For the same molecule, the “Growth Percent TK-10” value [43] was 127.11%, the “Growth Percent UO-31” value [44] was 65.72% and the “Growth Percent RXF 393” value [45] was 105.93%. The “Growth Percent DU145” value [46] was 109.69%, the “Growth Percent PC-3” value [47] was 76.11% and the “Growth Percent MCF7” value [48] was 79.77%. The “Growth Percent HS 578T” value [49] was 99.06%, the “Growth Percent MDA-MB-231/ATCC” value [50] was 92.27% and the “Growth Percent MDA-MB-468” value [51] was 100.45%. For the same molecule, the “Growth Percent NCI/ADR-RES” value [52] was 97.75%, the “Growth Percent BT-549” value [53] was 94.55% and the “Growth Percent T-47D” value [54] was 75.36%. For the same molecule, the “Growth Percent MDA-MB-435” value [55] was 105.58%, the “Growth Percent Delta” value ([56]; delta over all cell lines) was 31.54% and the “Growth Percent Mean” value ([56]; mean over all cell lines) was 97.26%. For the same molecule, the “Growth Percent Range” value ([56]; range over all cell lines) was 61.39%.
